# According to patent US12221422B2, “Compounds and their use for the treatment of alpha1-antitrypsin deficiency” (CENTESSA PHARMACEUTICALS (UK) LIMITED, priority 2018, dated 2025):
# Key:
# human M A1AT = biological target: T1, human M A1AT (Homo sapiens, UniProt P01009); assay: A1AT cell secretion assay using HEK-M cells (ELISA); format: cell-based; settings: 10 μM, 48 h
# T1 construct: expressed in transfected cells; host or cells: HEK-M (HEK-EBNA cells containing the M A1AT plasmid)
# Procedure: HEK-M cells, a human embryonic kidney cell line stably transfected with the human M A1AT gene, were plated into 96 well plates (3.0×10^5 cells/ml with 200 μl of media/well) overnight at 37° C. in a humidified atmosphere containing 5% CO2. Following incubation cells were washed with 200 μl serum-free media three times and media was replaced with serum-free media containing either vehicle, 10 μM suberanilohydroxamic acid (SAHA) or a compound of the invention (at 10 μM) in replicates of six for 48 h in a 37° C. incubator in a final volume of 200 μl. […]
# Briefly, a 96 well plate was coated with human A1AT capture antibody overnight at room temperature (1:180 dilution from stock, 100 μl final volume/well). […] After which, 50 μl stop solution (2M H2SO4) was added and optical density (OD) of each well was read at 450 nm with 570 nm blank subtracted from each well using a microplate reader. A 4 parameter logistic curve was constructed using GraphPad Prism 7 and A1AT concentrations were determined in each sample by interpolation from a standard curve and multiplying by the appropriate dilution factor.
# The amount of A1AT secreted from transfected HEK-EBNA cells into the media was measured by ELISA. […]
# TK6 cells = assay: In vitro micronucleus assay; format: cell-based; design: relative increase in cell count (RICC): dose or concentration left out as unconfirmed; settings: for relative increase in cell count (RICC): vs concurrent negative control
# Description: The purpose of the in vitro micronucleus assay is to assess the ability of the test item to cause chromosome or spindle damage, or to interfere with the cell cycle, in ways which lead to the formation of micronuclei in the cytoplasm of TK6 cells. Chromosome defects are recognised as being the basis of a number of human genetic diseases. Micronuclei (MN) are the result of chromosome fragments or whole chromosomes remaining in the cytoplasm and not being incorporated into the nuclei of newly formed cells. These arise from damage to chromosomes leading to acentric fragments which cannot attach to the mitotic spindle; damage to the spindle apparatus preventing a chromosome from attaching to it or other interference with cell division. Assays were performed in the presence and absence of an exogenous mammalian oxidative metabolising system (S-9 mix, a liver post-mitochondrial fraction derived from the livers of Aroclor 1254 treated rats), to mimic mammalian metabolism. Cells were exposed to the test item for 3 hours and sampled 44 hours after the beginning of treatment. As a number of chemicals have been reported as only exerting positive effects following prolonged treatment, a continuous treatment of 27 hours in the absence of S-9 mix was also included. This was equivalent to 1.5 to 2.0 times the average generation time of cultured cells used in the assay. The test methodology was based on established procedures for in vitro micronucleus testing.
# N,N-dimethyl-4-((6-oxopyrimidin-1(6H)-yl)methyl)benzamide was tested up to the regulatory maximum dose level of 1 mM […] in all treatments.
# T1 sequence (P01009 25-418): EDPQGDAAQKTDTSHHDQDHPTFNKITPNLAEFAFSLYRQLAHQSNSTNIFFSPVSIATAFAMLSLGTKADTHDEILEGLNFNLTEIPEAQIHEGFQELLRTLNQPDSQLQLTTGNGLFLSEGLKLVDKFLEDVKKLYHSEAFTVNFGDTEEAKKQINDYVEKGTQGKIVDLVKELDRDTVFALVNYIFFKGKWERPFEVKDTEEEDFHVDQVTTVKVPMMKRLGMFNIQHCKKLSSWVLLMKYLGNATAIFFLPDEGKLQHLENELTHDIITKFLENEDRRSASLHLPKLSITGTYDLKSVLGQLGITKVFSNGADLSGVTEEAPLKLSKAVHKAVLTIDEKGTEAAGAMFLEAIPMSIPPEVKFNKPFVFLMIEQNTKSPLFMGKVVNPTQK
compound,measurement,setting,value
"CN(C)C(=O)c1ccc(Cn2cnccc2=O)cc1 [N,N-dimethyl-4-((6-oxopyrimidin-1(6H)-yl)methyl)benzamide]",secretion of M A1AT as measured by ELISA,human M A1AT,does not stimulate secretion of M A1AT
same,relative increase in cell count (RICC),"TK6 cells; absence of S-9 mix, 3 hour treatment",98%
same,relative increase in cell count (RICC),"TK6 cells; absence of S-9 mix, 27 hour treatment",74%
same,relative increase in cell count (RICC),"TK6 cells; presence of S-9 mix, 3 hour treatment",105%
same,clastogenicity / aneugenicity,TK6 cells; presence or absence of S 9 mix,neither clastogenic nor aneugenic
same,cytotoxicity,"TK6 cells; up to 1 mM, 27 hour treatment only",only slight cytotoxicity
same,percentage MN (% MN),"TK6 cells; with S-9 mix 3 hour, without S-9 mix 3 hour or 27 hour",no statistically significant increases
